Laboratory results taken from ChEMBL document CHEMBL1151641, “Antitumor agents, 71. Nudaphantin, a new cytotoxic germacranolide, and elephantopin from Elephantopus nudatus” (1985).
In brackets after ≈: the same amount, converted by molar mass.

Assays:
Assay type in all cases: functional
KB = assay: Cytotoxicity against human KB cells
P388 [1] = assay: In vivo antileukemic activity against mouse P388 cells at 10 mg/kg relative to control
P388 [2] = assay: In vivo antileukemic activity against mouse P388 cells at 40 mg/kg relative to control

C=C(C)C(=O)O[C@H]1CC2=C[C@@H](C[C@@]3(C)O[C@@H]3[C@H]3OC(=O)C(=C)[C@@H]31)OC2=O [ELEPHANTOPIN]
ED50 (KB): 0.32 µg/mL (≈ 0.888 µM)
T/C (P388 [1]): 160%
T/C (P388 [2]): 171%

C=C(C)C(=O)O[C@H]1CC2=C[C@@H](C[C@@]3(C)O[C@@H]3[C@H]3OC(=O)C(=C)[C@@H]31)OC2OCC (some centres undefined) [NUDAPHANTIN]
EC50 (KB; Homo sapiens, KB, read-out: ED50 (the source's name)): 0.31 µg/mL (≈ 0.794 µM)
